Values of other authors as cited in publication PMC11034360 (RSC Advances, 2024).

System: H460, MDA-MB 468, MDA-MB-231 and glioblastoma (BT-33)
Settings: comparison drug for Au(III) complexes; ref 45c

In the case of `N.N.[Cl][Pt][Cl]` [cisplatin], the IC50 is given as 4.16 µM.
